According to patent US10159265B2, “Feed composition for reducing ruminant methanogenesis” (priority 2012, dated 2018):
Marks after values point to notes of the source that are not given here.

Key:
[1] = tested on: "in vitro" ruminal fluid culture; assay: Lactate concentration in "in vitro" ruminal fluid culture; assay type: cell-based, calves; conditions: 12 hours of incubation
Text: (§1) Two trials following an identical experimental protocol were designed to study the effect of different pure flavonoids on rumen fermentation using a simulatory “in vitro” system based on the experimental protocol described by Theodorou M K et al. (1994) Animal Feed Science and Technology, 48 (3), p. 185-197; Mauricio, R. M., et al. (1999) Animal Feed Science and Technology 79, 321-330.
(§2) Rumen cannulated calves which received a mixed ration mainly composed of concentrate (90:10) were used as rumen fluid donor; feed composition is presented in Table 1. The inoculum was collected and filtered through two-layer surgical gauze and kept in thermo pots. Flavonoids (Table 2) plus 600 mg of concentrate (Table 1) and 60 mg of barley straw as the substrate were dosed by triplicate in preheated bottles (39° C.) and maintained under anaerobic conditions. Flavonoids isonaringin, neoeritrocin, poncirin were purchased from INDOFINE Chemical Company, Inc (USA). 10 ml of rumen fluid and 40 ml of incubation medium were added to the bottles (McDougall, El (1948) Studies on ruminant saliva. 1. The composition and output of sheep's saliva. Biochem J. 43(1) 99-109). Once the bottles were filled and the anaerobic condition was applied, the bottles were sealed and the incubation process was started in a hot water bath. Pressure readings were made at 2, 4, 6, 8, 12, 24, 36 and 48 hours. Each sample was incubated in triplicate in two sets or batches.
(§3) After 12 hours of incubation, one bottle (replicate) from each treatment was opened, pH was recorded and the bottle was sampled for volatile fatty acids (Jouany, J. P., 1982 Science des Aliments 2, 131-144), lactate (Taylor, K. A. C. C., 1996. Appl. Biochem. Biotechnol. Enzym. Eng. Biotechnol. 56, 49-58) and ammonia (Chaney, A. L., Marbach, E. P., 1962. Clin. Chem. 8, 130-132) analyses.

[2] = tested on: "in vitro" ruminal fluid cultures; assay: Ammonia (N-NH3) concentration in "in vitro" ruminal fluid cultures; assay type: cell-based, calves; conditions: for N-NH3 concentration, average (M): average over incubation times
Text: as §1, §2, §3

[3] = tested on: ruminal bacteria; assay: Bacterial DNA concentration by qPCR; assay type: cell-based, calves; conditions: 12 hours of incubation
Protocol: as §2, §3
(§4) The environmental DNA was extracted using the technique proposed by Yu and Morrison (2004). Quantification of Streptococcus bovis, Megasphaera elsdenii and Selenomonas ruminantium DNA was done by qPCR using specific primers (Tajima, K. et al. 2001. Appl. Environ. Microb. 67, 2766-2774; Ouwerkerk, D., et al. 2002. J. Appl. Microbiol. 92, 753-758). Results were statistically analyzed using the PROC MIXED procedure of SAS statistical package (SAS, 2000, User's guide: Statistics, version 8 editions inst., Inc., Cary, N.C.). The least significant difference was used to compare the means. Differences between means in which P<0.05 were accepted as significant.

[4] = tested on: methanogenic (archea) populations; assay: Methane production in "in vitro" rumen fluid culture; assay type: cell-based, calves; set-up: Average methane production / Accumulated methane production / Methane production / Cumulative methane production: unit not given here
Text: as §1
as §2, with “Pressure readings were made at 2, 4, 6, 8, 12, 24, 36 and 48 hours.” left out
The effects of flavonoids substances on fermentation activity of certain archea populations which are theoretically responsible for the methane production were analyzed.
The experimental design allows determining whether the effect of flavonoids on methane reduction was derived from a general reduction in microbial activity and biogas production or contrarily flavonoid affects specifically on methanogenic (archea) populations. The presence of flavonoids in the culture medium reduced methane contribution in the total biogas production (P<0.05) although, again, the aforementioned impact was heterogeneous.

[5] = tested on: Streptococcus bovis; assay: qPCR relative quantification of Streptococcus bovis; assay type: cell-based; conditions: 12 hours of incubation
Protocol: as §2, §3, §4

[6] = tested on: Selenomonas ruminantium; assay: qPCR relative quantification of Selenomonas ruminantium; assay type: cell-based; conditions: 12 hours of incubation
Protocol: as §2, §3, §4

[7] = tested on: "in vitro" rumen fluid culture; assay: Biogas production in "in vitro" rumen fluid culture (pressure meter); assay type: cell-based, calves; set-up: Average biogas production / Cumulative biogas production / Biogas production: unit not given here; conditions: for Average biogas production: average over doses and incubation times
Protocol: as §1
Gas production was determined from a semi-automatic pressure meter, the relationship between pressure levels and the produced gas volume was previously calculated.
as §2, with “Pressure readings were made at 2, 4, 6, 8, 12, 24, 36 and 48 hours.” left out

[8] = tested on: "in vitro" ruminal fluid cultures; assay: Ammonia (N-NH3) concentration in "in vitro" ruminal fluid cultures; assay type: cell-based, calves; conditions: 72 h
[9] = tested on: Megasphaera elsdenii; assay: qPCR relative quantification of Megasphaera elsdenii; assay type: cell-based; conditions: 12 hours of incubation
Protocol: as §2, §3, §4

[10] = tested on: "in vitro" ruminal fluid cultures; assay: Volatile fatty acid concentration and molar proportions in "in vitro" ruminal fluid cultures; assay type: cell-based, calves; conditions: for % Acetate, molar ratio, average (μ) / % Butyrate, molar ratio, average (μ) / % Propionate, molar ratio, average (M) / VFA concentration, average (μ): average over incubation times
Text: as §1, §2
[…] P., 1982 Science des Aliments 2, 131-144), lactate (Taylor, K. A. C. C., 1996. Appl. Biochem. Biotechnol. Enzym. Eng. Biotechnol. 56, 49-58) and ammonia (Chaney, A. L., Marbach, E. P., 1962. Clin. Chem. 8, 130-132) analyses.

[11] = Exp 1, average over doses and incubation times
[12] = Exp 1, average over doses and incubation times, listed as neohesperidin

## C[C@@H]1O[C@@H](OC[C@H]2O[C@@H](Oc3cc(O)c4c(c3)O[C@H](c3ccc(O)cc3)CC4=O)[C@H](O)[C@@H](O)[C@@H]2O)[C@H](O)[C@H](O)[C@H]1O [Isonaringin, isonaringin]
[1]
  Lactate: 92.4 mg/L
[2]; 0 h (initial constant value)
  N-NH3 concentration: 149.99 mg/L
[2]; 12 h
  N-NH3 concentration: 165.46 mg/L
[2]
  N-NH3 concentration, average (M): 212.66 mg/L
[3]
  Bacteria DNA: 16.18 ^ab μg/ml
[4]; Exp 1, 12 h
  Accumulated methane production: 19.84
  Proportion of methane in the produced biogas: 10.68
[4]; Exp 1, 24 h
  Accumulated methane production: 24.94
  Proportion of methane in the produced biogas: 13.56
[4]; Exp 1, 48 h
  Accumulated methane production: 30.81
  Proportion of methane in the produced biogas: 16.79
[4]; Exp 1, 72 h
  Accumulated methane production: 34.08
  Proportion of methane in the produced biogas: 16.89
[4]; [11]
  Average methane production: 27.42^de
  Proportion of methane in the produced biogas: 14.48^bc
[4]; Exp 1, average over doses and incubation times, listed as isonaringin
  Average methane production: decreased
[4]; Exp 1, dose 1, 0.2 g/kg DM
  Methane production: 27.40
  Proportion of methane in the produced biogas: 14.53
[4]; Exp 1, dose 2, 0.5 g/kg DM
  Methane production: 27.43
  Proportion of methane in the produced biogas: 14.43
[5]
  Relative Quantification 2^(ΔΔCt) S. bovis: 0.46
[6]
  Relative Quantification 2^(ΔΔCt) S. ruminantium: 0.86
[7]; Exp 1, 12 h incubation
  Cumulative biogas production: 185.58
[7]; Exp 1, 24 h incubation
  Cumulative biogas production: 223.38
[7]; Exp 1, 48 h incubation
  Cumulative biogas production: 258.85
[7]; Exp 1, 72 h incubation
  Cumulative biogas production: 278.66
[7]; Exp 1, dose 1, 0.2 g/kg DM
  Biogas production: 235.13
[7]; Exp 1, dose 2, 0.5 g/kg DM
  Biogas production: 238.1
[8]
  N-NH3 concentration: 322.53 mg/L
[9]
  Relative Quantification 2^(ΔΔCt) M. elsdenii: 1.08 ^ab
[10]; 0 h
  % Acetate, molar ratio: 62.51 mol/100 mol
  % Butyrate, molar ratio: 9.07 mol/100 mol
  % Propionate, molar ratio: 20.03 mol/100 mol
  A/P rate (acetate/propionate): 3.12
[10]; 0 h (initial constant value)
  VFA concentration: 13.78 mmol/L
[10]; 12 h
  % Acetate, molar ratio: 53.94 mol/100 mol
  % Butyrate, molar ratio: 10.31 mol/100 mol
  % Propionate, molar ratio: 30.20 mol/100 mol
  A/P rate (acetate/propionate): 1.79
  VFA concentration: 36.49 mmol/L
[10]; 72 h
  % Acetate, molar ratio: 55.34 mol/100 mol
  % Butyrate, molar ratio: 10.24 mol/100 mol
  % Propionate, molar ratio: 26.94 mol/100 mol
  A/P rate (acetate/propionate): 2.06
  VFA concentration: 52.26 mmol/L
[10]
  % Acetate, molar ratio, average (μ): 57.26 mol/100 mol
  % Butyrate, molar ratio, average (μ): 9.87 ^ab mol/100 mol
  % Propionate, molar ratio, average (M): 25.72 ^b mol/100 mol
  VFA concentration, average (μ): 34.18 mmol/L
[10]; listed as isonaringin
  % Propionate, molar ratio, average (M): improved

## COc1ccc([C@@H]2CC(=O)c3c(O)cc(O[C@@H]4O[C@H](CO)[C@@H](O)[C@H](O)[C@H]4O[C@@H]4O[C@@H](C)[C@H](O)[C@@H](O)[C@H]4O)cc3O2)cc1O [Neohesperidin, neohesperidin]
[1]
  Lactate: 45.8 mg/L
[1]; listed as neohesperidin
  Lactate: tended to moderate the recorded increase
[2]; 0 h (initial constant value)
  N-NH3 concentration: 149.99 mg/L
[2]; 12 h
  N-NH3 concentration: 168.38 mg/L
[2]
  N-NH3 concentration, average (M): 219.18 mg/L
[3]
  Bacteria DNA: 23.93 ^ab μg/ml
[3]; listed as neohesperidin
  Bacteria DNA: increase did only reach statistical significance
[4]; Exp 1, 200 vs 500 mg/kg DM
  Dosage effect on methane production: more reduced by increasing the dose
[4]; Exp 1, 12 h
  Accumulated methane production: 18.02
  Proportion of methane in the produced biogas: 10.21
[4]; Exp 1, 24 h
  Accumulated methane production: 23.15
  Proportion of methane in the produced biogas: 12.34
[4]; Exp 1, 48 h
  Accumulated methane production: 28.84
  Proportion of methane in the produced biogas: 15.91
[4]; Exp 1, 72 h
  Accumulated methane production: 32.18
  Proportion of methane in the produced biogas: 16.20
[4]; [11]
  Proportion of methane in the produced biogas: 13.66^d
[4]; [12]
  Average methane production: decreased
  Proportion of methane in the produced biogas: 13.70
[4]; Exp 1, dose 1, 0.2 g/kg DM
  Methane production: 27.63
  Proportion of methane in the produced biogas: 13.98
[4]; Exp 1, dose 2, 0.5 g/kg DM
  Methane production: 23.46
  Proportion of methane in the produced biogas: 13.35
[4]; Exp 2 (second trial), average over doses and incubation times
  Average methane production: 30.44^b
[4]; Exp 2, 12 h
  Cumulative methane production: 22.52
[4]; Exp 2, 24 h
  Cumulative methane production: 27.98
[4]; Exp 2, 48 h
  Cumulative methane production: 34.31
[4]; Exp 2, 72 h
  Cumulative methane production: 36.95
[4]; Exp 2, dose 1, 0.2 g/kg DM
  Methane production: 30.1
[4]; Exp 2, dose 2, 0.5 g/kg DM
  Methane production: 30.8
[5]
  Relative Quantification 2^(ΔΔCt) S. bovis: 0.25
[6]
  Relative Quantification 2^(ΔΔCt) S. ruminantium: 0.53
[7]; Exp 1, 12 h incubation
  Cumulative biogas production: 175.93
[7]; Exp 1, 24 h incubation
  Cumulative biogas production: 217.84
[7]; Exp 1, 48 h incubation
  Cumulative biogas production: 253.99
[7]; Exp 1, 72 h incubation
  Cumulative biogas production: 275.06
[7]; Exp 1
  Average biogas production: 230.71^e
[7]; Exp 1, listed as neohesperidin
  Average biogas production: 230.7
[7]; Exp 1, dose 1, 0.2 g/kg DM
  Biogas production: 238.13
[7]; Exp 1, dose 2, 0.5 g/kg DM
  Biogas production: 223.28
[7]; Exp 1, inclusion levels 200 and 500 mg/kg
  Dosage effect on gas production: more pronounced dosage effect
[7]; Exp 2 (second trial)
  Average biogas production: 268.16^c
[7]; Exp 2, 12 h
  Cumulative biogas production: 215.60
[7]; Exp 2, 24 h
  Cumulative biogas production: 256.18
[7]; Exp 2, 48 h
  Cumulative biogas production: 292.28
[7]; Exp 2, 72 h
  Cumulative biogas production: 308.57
[7]; Exp 2, dose 1, 0.2 g/kg DM
  Biogas production: 267.1
[7]; Exp 2, dose 2, 0.5 g/kg DM
  Biogas production: 269.2
[8]
  N-NH3 concentration: 339.17 mg/L
[9]
  Relative Quantification 2^(ΔΔCt) M. elsdenii: 1.35 ^c
[9]; listed as neohesperidin
  Relative Quantification 2^(ΔΔCt) M. elsdenii: improved
[10]; 0 h
  % Acetate, molar ratio: 62.51 mol/100 mol
  % Butyrate, molar ratio: 9.07 mol/100 mol
  % Propionate, molar ratio: 20.03 mol/100 mol
  A/P rate (acetate/propionate): 3.12
[10]; 0 h (initial constant value)
  VFA concentration: 13.78 mmol/L
[10]; 12 h
  % Acetate, molar ratio: 54.68 mol/100 mol
  % Butyrate, molar ratio: 9.68 mol/100 mol
  % Propionate, molar ratio: 30.05 mol/100 mol
  A/P rate (acetate/propionate): 1.82
  VFA concentration: 36.97 mmol/L
[10]; 72 h
  % Acetate, molar ratio: 55.68 mol/100 mol
  % Butyrate, molar ratio: 9.96 mol/100 mol
  % Propionate, molar ratio: 26.91 mol/100 mol
  A/P rate (acetate/propionate): 2.07
  VFA concentration: 53.04 mmol/L
[10]
  % Acetate, molar ratio, average (μ): 57.62 mol/100 mol
  % Butyrate, molar ratio, average (μ): 9.57 ^a mol/100 mol
  % Propionate, molar ratio, average (M): 25.66 ^b mol/100 mol
  VFA concentration, average (μ): 34.60 mmol/L
